# In patent US5945436A, “Pyridylmethyl nitriles, amides and thioamides useful as fungicides” (Uniroyal Chemical Company, Inc., priority 1997, dated 1999):
# How the values were obtained:
# Pyricularia oryzae = experiment: whole plant or invertebrate; assay type: in vivo; conditions: for pest or weed control at 1000 µg/mL: Pyricularia oryzae, in Hordeum vulgare, foliar, 216 h, read-out: Percent Reduction of Disease, PYR ORY, barley, foliar, 1,000 mg/l; for Percent Reduction of Disease, PYR ORY: barley, foliar, 1,000 mg/l
# Helminthosporium sativum = experiment: Barley spot blotch, foliar treatment (HEL SAT); assay type: in vivo; conditions: foliar, 1,000 mg/l; for pest or weed control at 1000 µg/mL: Helminthosporium, foliar, 216 h, read-out: Percent Reduction of Disease, HEL SAT
# Protocol: Compositions containing Compounds Nos. 1-81 were prepared by dissolving 0.24 grams of each of the compounds in 8 ml of acetone or other suitable inert solvent. Each of the resultant solutions was treated with 3 drops of TWEEN 20 (ethoxylated ethylene sorbitan monolaurate, a non-ionic surfactant)(I.C.I.), and water was added to form an emulsion. The degree of dilution with water was dictated by the desired concentration of the compound in the composition. The greater the quantity of water added, the lower the concentration of the compound in the composition, reported in milligrams per liter (mg/l) Ten plants of six day-old Barley (variety "Robust") were planted in each of a plurality of pots. Each pot was then either sprayed with one of the compositions of Example 9, at a concentration of 1,000 mg/l, or left unsprayed. The unsprayed plants were used as controls. An equal number of pots were sprayed and unsprayed. All plants, sprayed and unsprayed, were thereafter inoculated with spores of the blotch fungus Helminthosporium sativum. All inoculated plants were placed in a 99% humidity chamber for 24 hours and then placed in a greenhouse, maintained at a temperature of 21° C., for eight days. […] Percent control was computed and the results are summarized in Table II under the heading "HEL SAT".
# [1] = system: Cercosporidium personatum; experiment: Fungal germination and growth, treated disc on agar, scored (CER PER); assay type: cell-based; design: key: 100: Complete inhibition of germination and growth.; 80: Nearly complete inhibition but some growth.; 50: Partial inhibition of growth or, early complete inhibition but later growth begins.; 20: Some inhibition of growth, but not significant.; 0: No inhibition of growth; conditions: disc dipped in 500 mg/l, 29° C., numerical score 0-100, spore suspension
# Excerpt: Filter paper discs, each 11 mm. in diameter, were dipped in each of the test solutions. The discs were allowed to air dry to drive off the acetone solvent. A number of untreated discs were used as controls. The treated and untreated discs were then placed on agar plates and one of the following fungus species: Septoria nodorum (SEP NOD), Botrytis cinerea (BOT CIN), Fusarium oxysporum (FUS OXY), Pythium ultimum ([…]), Rhizoctonia solani (RHI SOL), Colletotrichum gossypii (COL GOS), and Scierotinia minor (SCL MIN), was added to the center of each disc in the form of a culture plug with the fungus mat in contact with the paper of the test disc. Cercosporidium personatum (CER PER), was added to discs as a spore suspension (20,000 spores/ml) to the disc (two drops of spore suspension per disc), rather than a mycelial culture plug. The plates were then incubated at 29° C. in an oven. In the case of the Cercosporidium personatum (CER PER) fungi, scoring was done on a numerical basis as follows: 100=Complete inhibition of germination and growth. 80=Nearly complete inhibition but some growth. 50=Partial inhibition of growth or, early complete inhibition but later growth begins. 20=Some inhibition of growth, but not significant. 0=No inhibition of growth. The results of all the above tests appear in Table III below under the headings "SEP NOD," "BOT CIN," "FUS OXY," "[…]" "COL GOS" and "CER PER".
# Erysiphe cichoracearum = experiment: Powdery mildew of cucumber, systemic root uptake (CMS); assay type: in vivo; conditions: 45 ml of 250 mg/l, 8 days after inoculation
# Protocol: Compositions containing Compounds Nos. 1-81 were prepared by dissolving 0.24 grams of each of the compounds in 8 ml of acetone or other suitable inert solvent. Each of the resultant solutions was treated with 3 drops of TWEEN 20 (ethoxylated ethylene sorbitan monolaurate, a non-ionic surfactant)(I.C.I.), and water was added to form an emulsion. The degree of dilution with water was dictated by the desired concentration of the compound in the composition. The greater the quantity of water added, the lower the concentration of the compound in the composition, reported in milligrams per liter (mg/l) […] Upon reaching these ages, the plants were either treated with 45 ml of 250 mg/l concentration of the compositions of Example 9 or were left untreated. The untreated plants were used as controls. The 45 ml compositions saturated the soil of the treated pots without significant loss through drainage into the saucers below the pots. Twenty-four hours after the treatment with the compositions, both the barley and cucumber plants in all the pots, those treated and those untreated, were inoculated with powdery mildew fungus. This was accomplished by tapping leaves of previously infected barley and cucumber plants over the treated and untreated pots containing the barley and cucumber plants, respectively, to distribute spores of the fungus over the plants tested. […] Intermediate ratings were assigned depending on the degree of disease. […] The results of the powdery mildew disease control of barley are reported under the heading of "BMS". The results for cucumber mildew control are reported under the heading "CMS".
# Botrytis cinerea = experiment: Fungal growth inhibition, treated disc on agar (BOT CIN); assay type: cell-based; conditions: disc dipped in 500 mg/l, 29° C.; for inhibition at 500 µg/mL: Botrytis cinerea, read-out: Percent Growth Inhibition, BOT CIN
# Septoria nodorum = experiment: Fungal growth inhibition, treated disc on agar (SEP NOD); assay type: cell-based; conditions: disc dipped in 500 mg/l, 29° C.; for inhibition at 500 µg/mL: Parastagonospora nodorum, read-out: Percent Growth Inhibition, SEP NOD
# Scierotinia minor = experiment: Fungal growth inhibition, treated disc on agar (SCL MIN); assay type: cell-based; conditions: disc dipped in 500 mg/l, 29° C.; for inhibition at 500 µg/mL: read-out: Percent Growth Inhibition, SCL MIN
# Colletotrichum gossypii = experiment: Fungal growth inhibition, treated disc on agar (COL GOS); assay type: cell-based; conditions: disc dipped in 500 mg/l, 29° C.; for inhibition at 500 µg/mL: Colletotrichum gossypii, read-out: Percent Growth Inhibition, COL GOS
SMILES,pest or weed control at 1000 µg/mL (Pyricularia oryzae) [%],pest or weed control at 1000 µg/mL (Helminthosporium sativum) [%],CER PER inhibition score [1],"Percent Reduction of Disease, CMS (Erysiphe cichoracearum) [%]",inhibition at 500 µg/mL (Botrytis cinerea) [%],inhibition at 500 µg/mL (Septoria nodorum) [%],inhibition at 500 µg/mL (Scierotinia minor) [%],inhibition at 500 µg/mL (Colletotrichum gossypii) [%],"Percent Reduction of Disease, PYR ORY (Pyricularia oryzae) [%]","Percent Reduction of Disease, HEL SAT (Helminthosporium sativum) [%]","Percent Growth Inhibition, BOT CIN (Botrytis cinerea) [%]","Percent Growth Inhibition, SEP NOD (Septoria nodorum) [%]","Percent Growth Inhibition, SCL MIN (Scierotinia minor) [%]","Percent Growth Inhibition, COL GOS (Colletotrichum gossypii) [%]"
"CCCC(C#N)(CCCc1ccccc1Cl)c1cccnc1 (stereo not drawn) [Compound 15, 2-chloro-α-propyl-(3-pyridinyl)benzene pentanenitrile]",85,100,100,96,30,93,100,93,–,–,–,–,–,–
CCCCCCC(C#N)(Cc1ccc(C(C)(C)C)cc1)c1cccnc1 (stereo not shown) [Compound 16],20,85,0,0,20,45,5,42,–,–,–,–,–,–
CCCC(C#N)(Cc1ccc(Oc2ccccc2)cc1)c1cccnc1 (stereo not shown) [Compound 17],70,0,0,100,5,55,10,20,–,–,–,–,–,–
C=CCC(C#N)(Cc1ccc(C(C)(C)C)cc1)c1cccnc1 (stereo not shown) [Compound 18],85,100,0,20,10,5,10,10,–,–,–,–,–,–
CCCCC(C#N)(Cc1ccc(C(C)(C)C)cc1)c1cccnc1 (stereo not shown) [Compound 19],35,100,100,0,40,96,100,91,–,–,–,–,–,–
CCCC(C#N)(CCc1ccccc1)c1ccncc1 (stereo not shown) [Compound 25],0,0,0,17,55,19,86,72,–,–,–,–,–,–
CCCCC(C#N)(CCc1ccccc1)c1ccncc1 (stereo not shown) [Compound 26],0,0,0,0,5,45,96,75,–,–,–,–,–,–
C=CCC(C#N)(CCc1ccc(OC)cc1)c1ccccn1 (stereo not shown) [Compound 28],–,–,100,0,–,–,–,–,85,100,98,96,96,100
COc1ccc(CCC(C#N)(CC(C)C)c2ccccn2)cc1 (stereo not shown) [Compound 29],–,–,100,0,–,–,–,–,85,100,98,83,94,95
CCCCCC(C#N)(CCc1ccc(OC)cc1)c1ccccn1 (stereo not shown) [Compound 30],–,–,0,0,–,–,–,–,100,90,88,96,100,80
CCCCC(C#N)(CCc1ccc(OC)cc1)c1ccccn1 (stereo not shown) [Compound 31],–,–,0,0,–,–,–,–,0,90,89,81,75,70
N#CC(CCCc1ccc(Cl)cc1)(CC1CC1)c1ccccn1 (stereo not shown) [Compound 32],–,–,0,0,–,–,–,–,100,90,96,89,98,97
C=CCC(C#N)(CCc1ccc(C)cc1)c1cccnc1 (stereo not shown) [Compound 33],85,100,0,20,98,96,100,100,–,–,–,–,–,–
CCCCC(C#N)(CCc1ccc(C)cc1)c1cccnc1 (stereo not shown) [Compound 34],0,100,0,20,100,100,100,100,–,–,–,–,–,–
CCCCC(C#N)(CCc1ccc(OCC)cc1)c1cccnc1 (stereo not shown) [Compound 35],55,100,0,0,91,90,–,97,–,–,–,–,88,–
CCCCCCC(C#N)(CCc1ccc(OC)cc1)c1cccnc1 (stereo not shown) [Compound 36],90,100,0,0,45,96,100,0,–,–,–,–,–,–
COc1ccc(CCC(C#N)(CC2CC2)c2cccnc2)cc1 (stereo not shown) [Compound 37],100,100,0,0,100,100,100,100,–,–,–,–,–,–
